Reference: patent US20200291018A1, “TAM KINASE INHIBITORS” (SYROS PHARMACEUTICALS, INC., priority 2017, published 2020)

Experiments:
[1] = biological target: T1, AXL (Homo sapiens, UniProt P30530); assay: TR-FRET kinase activity assay, AXL; format: biochemical; conditions: ATP at Km, 60 minutes
T1 sequence (P30530 26-894): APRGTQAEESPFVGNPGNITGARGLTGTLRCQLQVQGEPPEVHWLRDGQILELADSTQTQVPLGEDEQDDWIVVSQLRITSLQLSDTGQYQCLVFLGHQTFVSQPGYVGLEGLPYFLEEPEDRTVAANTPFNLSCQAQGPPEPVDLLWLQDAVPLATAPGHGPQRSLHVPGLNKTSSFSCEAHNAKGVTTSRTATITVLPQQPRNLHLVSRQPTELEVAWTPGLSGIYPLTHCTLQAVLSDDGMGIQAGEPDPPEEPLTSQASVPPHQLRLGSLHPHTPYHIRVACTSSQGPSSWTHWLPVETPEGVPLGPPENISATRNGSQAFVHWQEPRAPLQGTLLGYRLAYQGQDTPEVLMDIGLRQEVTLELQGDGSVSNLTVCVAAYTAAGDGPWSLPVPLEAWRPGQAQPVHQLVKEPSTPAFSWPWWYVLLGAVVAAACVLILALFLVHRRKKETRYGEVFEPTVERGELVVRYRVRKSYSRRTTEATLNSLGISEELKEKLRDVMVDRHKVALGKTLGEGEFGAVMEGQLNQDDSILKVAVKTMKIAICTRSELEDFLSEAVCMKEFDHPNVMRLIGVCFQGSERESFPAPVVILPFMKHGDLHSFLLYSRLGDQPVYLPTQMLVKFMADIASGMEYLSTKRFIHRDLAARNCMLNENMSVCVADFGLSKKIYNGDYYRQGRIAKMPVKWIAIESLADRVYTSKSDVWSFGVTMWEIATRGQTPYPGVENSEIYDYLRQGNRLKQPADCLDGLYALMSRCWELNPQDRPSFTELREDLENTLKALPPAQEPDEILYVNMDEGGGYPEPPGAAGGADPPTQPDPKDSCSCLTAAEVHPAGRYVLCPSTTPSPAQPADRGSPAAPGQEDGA
Outline: (§1)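 Steps: compound, enzyme and labeled peptide combined at RT (50 mM HEPES pH 7.5, 10 mM MgCl2, 1 mM DTT); ATP added at Km; 60 min reaction; EDTA quench; Eu-antibody development 30 min in darkness; TR-FRET measured and IC50 fitted.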

[2] = biological target: T2, FLT3 (Homo sapiens, UniProt P36888); assay: TR-FRET kinase activity assay, FLT3; format: biochemical; conditions: ATP at Km, 60 minutes
T2 sequence (P36888 27-993): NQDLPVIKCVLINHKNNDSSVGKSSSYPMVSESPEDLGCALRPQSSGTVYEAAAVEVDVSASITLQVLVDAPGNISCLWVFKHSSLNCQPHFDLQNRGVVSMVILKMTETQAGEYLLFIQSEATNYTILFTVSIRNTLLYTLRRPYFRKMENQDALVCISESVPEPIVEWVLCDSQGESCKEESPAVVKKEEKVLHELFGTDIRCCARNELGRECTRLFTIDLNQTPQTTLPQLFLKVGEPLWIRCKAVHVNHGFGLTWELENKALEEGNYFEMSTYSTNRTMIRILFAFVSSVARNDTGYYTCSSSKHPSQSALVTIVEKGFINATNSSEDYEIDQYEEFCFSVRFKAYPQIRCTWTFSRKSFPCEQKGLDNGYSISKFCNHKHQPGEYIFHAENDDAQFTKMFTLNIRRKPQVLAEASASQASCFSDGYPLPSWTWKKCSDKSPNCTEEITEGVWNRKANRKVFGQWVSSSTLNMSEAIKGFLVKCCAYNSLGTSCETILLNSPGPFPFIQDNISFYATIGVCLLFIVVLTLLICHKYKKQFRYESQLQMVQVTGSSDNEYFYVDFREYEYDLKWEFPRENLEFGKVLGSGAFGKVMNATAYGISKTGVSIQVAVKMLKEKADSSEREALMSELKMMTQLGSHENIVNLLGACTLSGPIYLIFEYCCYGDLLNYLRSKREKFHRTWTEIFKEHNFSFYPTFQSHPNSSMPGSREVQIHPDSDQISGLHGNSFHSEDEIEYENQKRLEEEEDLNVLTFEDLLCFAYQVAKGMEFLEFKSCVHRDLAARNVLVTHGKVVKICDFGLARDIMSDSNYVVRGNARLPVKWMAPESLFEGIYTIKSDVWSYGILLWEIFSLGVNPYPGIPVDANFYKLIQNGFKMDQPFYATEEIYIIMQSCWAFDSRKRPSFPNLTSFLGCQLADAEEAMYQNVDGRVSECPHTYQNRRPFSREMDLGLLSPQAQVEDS
Outline: as §1

Compound | IC50 [1] | IC50 [2]
O[C@H]1CC[C@H](c2cnc(OC3CCNCC3)c3cnc(NC4CCC(F)(F)CC4)nc32)CC1 [Compound 164] | 1000 to 10000 nM | 1000 to 10000 nM
CCCC(C)Nc1ncc2c(NC3CCN(C(=O)C(F)(F)F)CC3)ncc([C@H]3CC[C@H](O)CC3)c2n1 (stereo partly shown) [Compound 165] | 100 to 1000 nM | 100 to 1000 nM
CCCC(C)Nc1ncc2c(OC3CCNCC3)ncc([C@H]3CC[C@H](O)CC3)c2n1 (stereo partly shown) [Compound 166] | 100 to 1000 nM | 100 to 1000 nM
CC1CC(Nc2ncc3c(OC4CCNCC4)ncc([C@H]4CC[C@H](O)CC4)c3n2)C1 (stereo partly shown) [Compound 167] | ≤ 100 nM | ≤ 100 nM
CC1CC(Nc2ncc3c(OC4CCNCC4)ncc([C@H]4CC[C@@H](O)CC4)c3n2)C1 (stereo partly shown) [Compound 168] | 100 to 1000 nM | 100 to 1000 nM
CCCC(C)Nc1ncc2c(=O)n(CCN(C)C)cc([C@H]3CC[C@H](O)CC3)c2n1 (stereo partly shown) [Compound 169] | 1000 to 10000 nM | 1000 to 10000 nM
CCCC(C)Nc1ncc2c(OC3CCN(CCC(=O)N(C)C)CC3)ncc([C@H]3CC[C@H](O)CC3)c2n1 (stereo partly shown) [Compound 170] | 100 to 1000 nM | 1000 to 10000 nM
CCC[C@H](C)Nc1ncc2c(OC3CCNCC3)ncc([C@H]3CC[C@H](O)CC3)c2n1 [Compound 171] | ≤ 100 nM | 100 to 1000 nM
CCCC(C)Nc1ncc2c(OC3CCN(CC(=O)N(C)C)CC3)ncc([C@H]3CC[C@H](O)CC3)c2n1 (stereo partly shown) [Compound 172] | 100 to 1000 nM | 1000 to 10000 nM
CCCC(C)Nc1ncc2c(OC3CCN(CCOC)CC3)ncc([C@H]3CC[C@H](O)CC3)c2n1 (stereo partly shown) [Compound 173] | 100 to 1000 nM | 1000 to 10000 nM
CCCC(C)Nc1ncc2c(O[C@@H]3C[C@H]4CC[C@@H](C3)O4)ncc([C@H]3CC[C@H](O)CC3)c2n1 (stereo partly shown) [Compound 174] | 100 to 1000 nM | 1000 to 10000 nM
CCCC(C)Nc1ncc2c(O[C@H]3C[C@H]4CC[C@@H](C3)O4)ncc([C@H]3CC[C@H](O)CC3)c2n1 (stereo partly shown) [Compound 175] | 100 to 1000 nM | 100 to 1000 nM
CCCC(C)Nc1ncc2c(O[C@H]3C[C@@H](O)C3)ncc([C@H]3CC[C@H](O)CC3)c2n1 (stereo partly shown) [Compound 176] | 100 to 1000 nM | 100 to 1000 nM
CCCC(C)Nc1ncc2c(=O)n(CCN3CCOCC3)cc([C@H]3CC[C@H](O)CC3)c2n1 (stereo partly shown) [Compound 177] | 1000 to 10000 nM | 1000 to 10000 nM
CC(C)C(C)Nc1ncc2c(OC3CCNCC3)ncc([C@H]3CC[C@H](O)CC3)c2n1 (stereo partly shown) [Compound 178] | 100 to 1000 nM | 1000 to 10000 nM
CCCC(C)Nc1ncc2c(N(C)C3CCNCC3)ncc([C@H]3CC[C@H](O)CC3)c2n1 (stereo partly shown) [Compound 179] | 100 to 1000 nM | 1000 to 10000 nM
CCCC(C)Nc1ncc2c(N3CCC[C@H](N(C)C)C3)ncc([C@H]3CC[C@H](O)CC3)c2n1 (stereo partly shown) [Compound 180] | 1000 to 10000 nM | 1000 to 10000 nM
CCCC(C)Nc1ncc2c(N3CC(N(C)C)C3)ncc([C@H]3CC[C@H](O)CC3)c2n1 (stereo partly shown) [Compound 181] | 1000 to 10000 nM | 1000 to 10000 nM
CCCC(C)Nc1ncc2c(OCCN3CCOCC3)ncc([C@H]3CC[C@H](O)CC3)c2n1 (stereo partly shown) [Compound 182] | 1000 to 10000 nM | 100 to 1000 nM

Compound | IC50 [1] | IC50 [2]
O[C@H]1CC[C@H](c2cnc(OC3CCNCC3)c3cnc(NC4CCCCC4)nc32)CC1 [Compound 183] | 100 to 1000 nM | 100 to 1000 nM
CCCC(C)Nc1ncc2c(OC3CCOCC3)ncc([C@H]3CC[C@@H](N(C)C)CC3)c2n1 (stereo partly shown) [Compound 184] | 1000 to 10000 nM | 1000 to 10000 nM
CCCC(C)Nc1ncc2c(OC3CCOCC3)ncc([C@H]3CC[C@H](N(C)C)CC3)c2n1 (stereo partly shown) [Compound 185] | 100 to 1000 nM | 100 to 1000 nM
CCCC(C)Nc1ncc2c(=O)n(C3CCN(C(C)C)CC3)cc([C@H]3CC[C@H](O)CC3)c2n1 (stereo partly shown) [Compound 186] | 100 to 1000 nM | 1000 to 10000 nM
CCCC(C)Nc1ncc2c(O[C@H]3C[C@H](O)C3)ncc([C@H]3CC[C@H](O)CC3)c2n1 (stereo partly shown) [Compound 187] | 100 to 1000 nM | 100 to 1000 nM
CCCC(C)Nc1ncc2c(N3CCC[C@@H](N(C)C)C3)ncc([C@H]3CC[C@H](O)CC3)c2n1 (stereo partly shown) [Compound 188] | 1000 to 10000 nM | 1000 to 10000 nM
C[C@H](Nc1ncc2c(OC3CCNCC3)ncc([C@H]3CC[C@H](O)CC3)c2n1)c1ccccc1 [Compound 189] | 1000 to 10000 nM | 1000 to 10000 nM
CCC[C@H](C)Nc1ncc2c(OC3CCN(C)CC3)ncc([C@H]3CC[C@H](O)CC3)c2n1 [Compound 190] | 100 to 1000 nM | 1000 to 10000 nM
CCCC(C)Nc1ncc2c(OCCN(C)C)ncc([C@H]3CC[C@H](O)CC3)c2n1 (stereo partly shown) [Compound 191] | 1000 to 10000 nM | 1000 to 10000 nM
CCCC(C)Nc1ncc2c(=O)n(C3CCN(C(=O)CN(C)C)CC3)cc([C@H]3CC[C@H](O)CC3)c2n1 (stereo partly shown) [Compound 192] | 1000 to 10000 nM | 1000 to 10000 nM
CCCC(C)Nc1ncc2c(=O)n(CC3CCN(C)CC3)cc([C@H]3CC[C@H](O)CC3)c2n1 (stereo partly shown) [Compound 193] | 100 to 1000 nM | 1000 to 10000 nM
C[C@@H](CC(F)(F)F)Nc1ncc2c(O[C@H]3C[C@](C)(O)C3)ncc([C@H]3CC[C@H](O)CC3)c2n1 [Compound 430] | 100 to 1000 nM | 100 to 1000 nM
COC[C@H](C)Nc1ncc2c(O[C@H]3C[C@@H](O)C3(C)C)ncc([C@H]3CC[C@H](O)CC3)c2n1 [Compound 431] | 1000 to 10000 nM | 1000 to 10000 nM
COCCN1[C@@H]2CC[C@H]1C[C@H](Oc1ncc([C@H]3CC[C@H](O)CC3)c3nc(N[C@@H](C)CC(F)(F)F)ncc13)C2 [Compound 432] | ≤ 100 nM | 100 to 1000 nM
CC(=O)N[C@H]1C[C@@H](Oc2ncc([C@H]3CC[C@H](O)CC3)c3nc(N[C@@H](C)CC(F)(F)F)ncc23)C1 [Compound 433] | ≤ 100 nM | 100 to 1000 nM
CO[C@H]1C[C@@H](Oc2ncc([C@H]3CC[C@H](O)CC3)c3nc(N[C@@H](C)CC(F)(F)F)ncc23)C1 [Compound 434] | 100 to 1000 nM | 100 to 1000 nM
COC(=O)N[C@H]1C[C@@H](Oc2ncc([C@H]3CC[C@H](O)CC3)c3nc(N[C@@H](C)CC(F)(F)F)ncc23)C1 [Compound 435] | ≤ 100 nM | ≤ 100 nM
CC(=O)N1[C@@H]2CC[C@H]1C[C@H](Oc1ncc([C@H]3CC[C@H](O)CC3)c3nc(N[C@@H](C)CC(F)(F)F)ncc13)C2 [Compound 436] | ≤ 100 nM | 100 to 1000 nM
C[C@@H](CC(F)(F)F)Nc1ncc2c(O[C@@H]3C[C@H]4CC[C@@H](C3)N4C3COC3)ncc([C@H]3CC[C@H](O)CC3)c2n1 [Compound 437] | ≤ 100 nM | 100 to 1000 nM
